Data reported in PubChem BioAssay (NCI).
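In this assay, cells in 96-well plates receive the compound at five concentrations for 48 hours. Endpoints are linearly interpolated between the surrounding concentrations. GI50 marks 50% less growth. TGI denotes the concentration required for complete inhibition of growth.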

Columns and labels:
Test in all cases: inhibition of tumour cell growth, NCI panel, 48 h
ACHN renal = tested on: ACHN renal
COLO 205 colon = tested on: COLO 205 colon
MCF7 breast = tested on: MCF7 breast
NCI-H460 lung = tested on: NCI-H460 lung
OVCAR-3 ovarian = tested on: OVCAR-3 ovarian
SK-MEL-28 melanoma = tested on: SK-MEL-28 melanoma
U251 CNS = tested on: U251 CNS
EKVX NSCLC = tested on: EKVX NSCLC
HCC-2998 colon = tested on: HCC-2998 colon
MALME-3M melanoma = tested on: MALME-3M melanoma

SMILES | GI50 (ACHN renal) | TGI (ACHN renal) | GI50 (COLO 205 colon) | TGI (COLO 205 colon) | GI50 (MCF7 breast) | TGI (MCF7 breast) | GI50 (NCI-H460 lung) | TGI (NCI-H460 lung) | GI50 (OVCAR-3 ovarian) | TGI (OVCAR-3 ovarian) | GI50 (SK-MEL-28 melanoma) | TGI (SK-MEL-28 melanoma) | GI50 (U251 CNS) | TGI (U251 CNS) | TGI (EKVX NSCLC) | TGI (HCC-2998 colon) | TGI (MALME-3M melanoma) | GI50 (EKVX NSCLC) | GI50 (HCC-2998 colon) | GI50 (MALME-3M melanoma)
COc1ccc(-c2nc(-c3ccccc3)c(-c3ccccc3)n2C2CC2)cc1OC1CCCC1 | 58 µM | > 165 µM | 51.3 µM | > 165 µM | 67.6 µM | > 165 µM | 11 µM | > 165 µM | 102 µM | > 165 µM | > 165 µM | > 165 µM | 30.2 µM | > 165 µM |  |  |  |  |  | 
COC(=O)c1ccc(N=NN(C)CO)cc1 |  | > 100 µM |  | > 100 µM |  |  |  | > 100 µM |  | > 100 µM |  | > 100 µM |  | > 100 µM | > 100 µM | > 100 µM | > 100 µM |  |  | 
N.N.NC(CS)C(=O)[O-].NC(CS)C(=O)[O-].[Pt+4] (stereo not drawn) | > 50 µM | > 50 µM | > 50 µM | > 50 µM |  |  | > 50 µM | > 50 µM | > 50 µM | > 50 µM | > 50 µM | > 50 µM | > 50 µM | > 50 µM | > 50 µM | > 50 µM | > 50 µM | > 50 µM | > 50 µM | > 50 µM
C[C@]12CC[C@@H]3c4ccc(O)cc4CC[C@H]3[C@@H]1CC[C@@H]2NS(=O)(=O)Cc1ccc(Cl)cc1 | 2.94 µM | 11.5 µM | 1.81 µM | 3.27 µM | 2.92 µM | 9.62 µM | 2.23 µM | 5.31 µM | 1.91 µM | 3.83 µM | 2.01 µM | 4.22 µM | 3.33 µM | 11.8 µM |  | 8.14 µM | 9.95 µM |  | 2.99 µM | 2.85 µM
COC(=O)c1nc(NC#N)[nH]c(=O)c1C |  | > 100 µM |  | > 100 µM |  |  |  | > 100 µM |  | > 100 µM |  | > 100 µM |  | > 100 µM | > 100 µM | > 100 µM | > 100 µM |  |  | 
CS(=O)c1ccc(COP(N)(=O)N(CCCl)CCCl)cc1 (stereo not drawn) |  | > 100 µM |  | > 100 µM |  |  |  | > 100 µM |  | > 100 µM |  | > 100 µM |  | > 100 µM | > 100 µM | > 100 µM | > 100 µM |  |  | 
CN(C)c1ccc2c3c(c(=O)oc2c1)CCC3 |  | > 100 µM |  | > 100 µM |  | > 100 µM |  | > 100 µM |  | > 100 µM |  | > 100 µM |  | > 100 µM | > 100 µM | > 100 µM |  |  |  | 
Nc1c(-c2nc3ccccc3[nH]2)sc(=S)n1-c1ccccc1 |  | > 100 µM |  | > 100 µM |  |  |  | > 100 µM |  | > 100 µM |  | > 100 µM |  | > 100 µM | > 100 µM | > 100 µM | > 100 µM |  |  | 
S=C(N/N=C/c1ccccn1)Nc1ccccn1 | 1.56 µM | > 100 µM | 0.471 µM | > 100 µM | 0.472 µM | > 100 µM | 0.962 µM | 12.6 µM | 0.327 µM | 3.14 µM | 2.51 µM | > 100 µM | 1.07 µM | 24 µM |  | > 100 µM | > 100 µM |  | 2.19 µM | 1.81 µM
